The values below are quoted from earlier work in article PMC11592675, “Förster Resonance Energy Transfer Measurements in Living Bacteria for Interaction Studies of BamA with BamD and Inhibitor Identification” (Cells, 2024).

One series has as its system clinical isolates. To be noted: several clinical isolates; cited from earlier work. An excerpt: Resistance against known antibiotics is progressively spreading. Therefore, new antibacterial entities are urgently needed. […] The β-barrel assembly ...
The test system of the next series is BamA. To be noted: cited from earlier work. An excerpt:
Resistance against known antibiotics is progressively spreading. Therefore, new antibacterial entities are urgently needed. According to the WHO, new antibiotics against gram-negative bacteria are in particular need. Common mechanisms of antibiotic resistance in gram-negative bacteria include changes in membrane and cell-wall permeability, biofilm formation, the production of efflux pumps and beta-lactamases, as well as mutation of typical targets. […] The β-barrel assembly ...

Regarding darobactin, the antimicrobial activity entry in the series with clinical isolates is recorded as “antimicrobial activity against several clinical isolates”. The “effect on insertion of BamA client proteins into the outer membrane” value in the series on BamA is “prevents the insertion of BamA client proteins into the outer membrane”.
